Data as given in patent US8802720B2, “Acylamino-substituted fused cyclopentanecarboxylic acid derivatives and their use as pharmaceuticals” (SANOFI, priority 2008, dated 2014).

Molecular target: human Edg-2 receptor (LPA1 receptor) (Homo sapiens, UniProt Q92633)
Assay: Edg-2 receptor inhibition by FLIPR calcium fluorescence measurement (LPA-mediated calcium liberation)
Format: cell-based
Conditions: CHO cells stably overexpressing human Edg-2 receptor; LPA 18:1 100 nM; fluo-4 fluorescence; triplicate; read-out: Inhibitory concentrations IC50 for inhibition of the Edg-2 receptor
In short: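 CHO cells stably overexpressing human Edg-2 were fluo-4 loaded and pre-incubated ~5 min with compound (≤0.3% DMSO) in HBSS/HEPES/probenecid, pH 7.5. Then LPA 18:1 at 100 nM final was added. Peak calcium fluorescence over ~3 min, baseline-corrected versus DMSO, gave % inhibition in triplicate and IC50.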

Sequence of human Edg-2 receptor (LPA1 receptor) (Q92633 whole entry): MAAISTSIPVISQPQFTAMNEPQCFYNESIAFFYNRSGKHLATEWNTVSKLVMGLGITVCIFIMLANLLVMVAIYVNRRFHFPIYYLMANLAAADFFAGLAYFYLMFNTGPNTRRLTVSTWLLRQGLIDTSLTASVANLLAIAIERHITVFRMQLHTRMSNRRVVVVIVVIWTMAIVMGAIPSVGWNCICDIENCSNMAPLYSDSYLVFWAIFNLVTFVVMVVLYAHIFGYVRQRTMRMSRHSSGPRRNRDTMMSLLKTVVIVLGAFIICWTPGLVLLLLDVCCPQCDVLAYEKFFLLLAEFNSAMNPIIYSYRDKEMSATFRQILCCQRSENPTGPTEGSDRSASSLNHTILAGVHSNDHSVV

Row | IC50 | Compound
1 | < 100 nM | COc1ccc(C(=O)NC2(C(=O)O)Cc3ccccc3C2)cc1CCCc1cccc(C)c1 [Example 116, 2-[4-Methoxy-3-(3-m-tolyl-propyl)-benzoylamino]-indane-2-carboxylic acid]
2 | 100 to 1000 nM | COc1ccc(C(=O)NC2(C(=O)O)Cc3ccccc3C2)cc1NC(=O)Cc1ccccc1 [Example 117, 2-(4-Methoxy-3-phenylacetylamino-benzoylamino)-indane-2-carboxylic acid]
3 | 1000 to 30000 nM | COc1ccc(C(=O)NC2(C(=O)O)Cc3ccccc3C2)cc1NC(=O)Cc1cccc(Br)c1 [Example 118]
4 | 1000 to 30000 nM | COc1ccc(C(=O)NC2(C(=O)O)Cc3ccccc3C2)cc1NC(=O)c1cccc(F)c1 [Example 120, 2-[3-[3-fluoro-benzoylamino)-4-methoxy-benzoylamino)-indane-2-carboxylic acid]
5 | 1000 to 30000 nM | COc1ccc(C(=O)NC2(C(=O)O)Cc3ccccc3C2)cc1NCc1ccc(F)cc1 [Example 121, 2-[3-(4-Fluoro-benzylamino)-4-methoxy-benzoylamino]-indane-2-carboxylic acid]
6 | 1000 to 30000 nM | COc1ccc(C(=O)NC2(C(=O)O)Cc3ccccc3C2)cc1NCc1cccc(Cl)c1 [Example 123]
7 | 1000 to 30000 nM | COc1ccc(C(=O)NC2(C(=O)O)Cc3ccccc3C2)cc1OCc1cccc(C)c1 [Example 126]
8 | < 100 nM | COc1ccc(C(=O)NC2(C(=O)O)Cc3ccccc3C2)cc1OCCc1cccc(C(F)(F)F)c1 [Example 127, 2-{4-methoxy-3-[2-(3-trifluoromethyl-phenyl)-ethoxy]-benzoylamino}-indane-2-carboxylic acid]
9 | 100 to 1000 nM | O=C(NC1(C(=O)O)Cc2ccccc2C1)c1ccc(Cl)c(OCCc2cccc(C(F)(F)F)c2)c1 [Example 128]
10 | 100 to 1000 nM | Cc1cccc(CCOc2cc(C(=O)NC3(C(=O)O)Cc4ccccc4C3)ccc2C)c1 [Example 129]
11 | < 100 nM | COc1ccc(C(=O)NC2(C(=O)O)Cc3ccccc3C2)cc1OCCc1ccccc1 [Example 130]
12 | 1000 to 30000 nM | COc1ccc(C(=O)NC2(C(=O)O)Cc3ccccc3C2)cc1OCCc1ccccc1C [Example 134]
13 | 100 to 1000 nM | COc1ccc(C(=O)NC2(C(=O)O)Cc3ccccc3C2)cc1OCCc1ccccc1F [Example 139]
14 | 1000 to 30000 nM | Cc1cccc(CCOc2cccc(C(=O)NC3(C(=O)O)Cc4ccccc4C3)c2)c1 [Example 141]
15 | 1000 to 30000 nM | COc1ccc(C(=O)NC2(C(=O)O)Cc3ccccc3C2)cc1OC(C)Cc1ccccc1 (centres unmarked) [Example 142]
16 | < 100 nM | COc1ccc(C(=O)NC2(C(=O)O)Cc3ccccc3C2)cc1OCCc1cccc(Br)c1 [Example 143]
17 | < 100 nM | COc1ccc(C(=O)NC2(C(=O)O)Cc3ccccc3C2)cc1OCC(C)c1ccccc1 (centres unmarked) [Example 144]
18 | 100 to 1000 nM | Cc1cccc(CCOc2cc(C(=O)NC3(C(=O)O)Cc4ccccc4C3)ccc2F)c1 [Example 145]
19 | 100 to 1000 nM | COc1ccc(C(=O)NC2(C(=O)O)Cc3ccccc3C2)cc1OCCc1ccsc1 [Example 146]
20 | 1000 to 30000 nM | COc1ccc(C(=O)NC2(C(=O)O)Cc3ccccc3C2)cc1OCCc1ccccn1 [Example 148]
21 | 1000 to 30000 nM | COc1ccc(C(=O)NC2(C(=O)O)Cc3ccccc3C2)cc1OCCC1CCCC1 [Example 150]
22 | 1000 to 30000 nM | COc1ccc(C(=O)NC2(C(=O)O)Cc3ccccc3C2)cc1OCCCc1ccccc1 [Example 151]
23 | < 100 nM | COc1ccc(C(=O)NC2(C(=O)O)Cc3ccccc3C2)cc1OCCc1c(F)cccc1Cl [Example 152]
24 | 100 to 1000 nM | COc1ccc(C(=O)NC2(C(=O)O)Cc3ccccc3C2)cc1OCCc1cccc(Cl)c1F [Example 153]
25 | 1000 to 30000 nM | COc1ccc(C(=O)NC2(C(=O)O)Cc3ccccc3C2)cc1OCCc1cccc(C(F)(F)F)c1F [Example 155]

The next lines start with the molecule.

Row | Compound | IC50
26 | COc1ccc(C(=O)NC2(C(=O)O)Cc3ccccc3C2)cc1OS(=O)(=O)c1ccc(C)cc1 [Example 110] | 1000 to 30000 nM
27 | COc1ccc(C(=O)NC2(C(=O)O)Cc3ccccc3C2)cc1OS(=O)(=O)c1cccc(C)c1 [Example 111, 2-[3-(toluene-3-sulfonyloxy)-4-methoxy-benzoylamino]-indane-2-carboxylic acid] | 1000 to 30000 nM
28 | COc1ccc(C(=O)NC2(C(=O)O)Cc3ccccc3C2)cc1OS(=O)(=O)c1ccccc1C [Example 112] | 1000 to 30000 nM
29 | COc1ccc(C(=O)NC2(C(=O)O)Cc3ccccc3C2)cc1C(=O)COc1cccc(C)c1 [Example 113, 2-[4-Methoxy-3-(2-m-tolyloxy-acetyl)-benzoylamino]-indane-2-carboxylic acid] | 1000 to 30000 nM
30 | COc1ccc(C(=O)NC2(C(=O)O)Cc3ccccc3C2)cc1C(O)COc1cccc(C)c1 (centres unmarked) [Example 114, 2-[3-(1-Hydroxy-2-m-tolyloxy-ethyl)-4-methoxy-benzoylamino]-indane-2-carboxylic acid] | 1000 to 30000 nM
31 | COc1ccc(C(=O)NC2(C(=O)O)Cc3ccccc3C2)cc1CCOc1cccc(C)c1 [Example 115, 2-[4-Methoxy-3-(2-m-tolyloxy-ethyl)-benzoylamino]-indane-2-carboxylic acid] | 1000 to 30000 nM
32 | COc1ccc(C(=O)NC2(C(=O)O)Cc3ccccc3C2)cc1NC(=O)Cc1cccc(Cl)c1 [Example 119] | 1000 to 30000 nM
33 | COc1ccc(C(=O)NC2(C(=O)O)Cc3ccccc3C2)cc1NCCc1ccccc1 [Example 122, 2-[3-[2-phenyl-ethylamino)-4-methoxy-benzoylamino)-indane-2-carboxylic acid] | 100 to 1000 nM
34 | COc1ccc(C(=O)NC2(C(=O)O)Cc3ccccc3C2)cc1NCC(C)c1ccccc1 (centres unmarked) [Example 124] | 100 to 1000 nM
35 | COc1ccc(C(=O)NC2(C(=O)O)Cc3ccccc3C2)cc1OCCc1cccc(F)c1 [Example 131] | < 100 nM
36 | COc1ccc(C(=O)NC2(C(=O)O)Cc3ccccc3C2)cc1OCCc1cccc(Cl)c1 [Example 132] | < 100 nM
37 | COc1cccc(CCOc2cc(C(=O)NC3(C(=O)O)Cc4ccccc4C3)ccc2OC)c1 [Example 133] | 100 to 1000 nM
38 | COc1ccc(C(=O)NC2(C(=O)O)Cc3ccccc3C2)cc1OCCc1ccc(C)cc1 [Example 135] | 1000 to 30000 nM
39 | COc1ccc(C(=O)NC2(C(=O)O)Cc3ccccc3C2)cc1OCCc1ccc(F)cc1 [Example 136] | 1000 to 30000 nM
40 | COc1ccc(CCOc2cc(C(=O)NC3(C(=O)O)Cc4ccccc4C3)ccc2OC)cc1 [Example 137] | 1000 to 30000 nM
41 | COc1ccccc1CCOc1cc(C(=O)NC2(C(=O)O)Cc3ccccc3C2)ccc1OC [Example 138] | 1000 to 30000 nM
42 | COc1ccc(C(=O)NC2(C(=O)O)Cc3ccccc3C2)cc1OCCc1cc(C)ccc1C [Example 140] | 1000 to 30000 nM
43 | COc1ccc(C(=O)NC2(C(=O)O)Cc3ccccc3C2)cc1OCCc1cccs1 [Example 147] | 100 to 1000 nM
44 | COc1ccc(C(=O)NC2(C(=O)O)Cc3ccccc3C2)cc1OCCc1ccccc1Cl [Example 149] | < 100 nM
45 | COc1ccc(C(=O)NC2(C(=O)O)Cc3ccccc3C2)cc1OCCc1cc(C(F)(F)F)ccc1F [Example 154] | < 100 nM
46 | COc1ccc(C(=O)NC2(C(=O)O)Cc3ccc(Br)cc3C2)cc1OCCc1cccc(C)c1 (centres unmarked) [Example 156, 5-Bromo-2-[4-methoxy-3-(2-m-tolyl-ethoxy)-benzoylamino]-indane-2-carboxylic acid] | < 100 nM
47 | COc1ccc(C(=O)NC2(C(=O)O)Cc3ccc(F)cc3C2)cc1OCCc1cccc(C)c1 (centres unmarked) [Example 157, 5-Fluoro-2-[4-methoxy-3-(2-m-tolyl-ethoxy)-benzoylamino]-indane-2-carboxylic acid] | < 100 nM
